Results published in publication PMC12737022, “Evaluations of Sex Differences in Dosimetry in Rats Following Perfluorohexanesulfonamide (PFHxSA) Oral Exposure” (Toxics, 2025).
In brackets after ≈: the same amount, converted by molar mass. Several values for one entry are separate records, joined by “and”; a condition that tells them apart may be missing. Equal entries are not always repeated.

Key:
[1] = Solubility and stability of PFHxSA corn oil dosing solutions; type: physicochemical; conditions: for Replicate percent recoveries, Day 5 / Replicate percent recoveries, Day 7 / Replicate percent recoveries, Day 14: relative to Day 0
Procedure: The stability of PFHxSA corn oil dosing solutions was also evaluated up to 14 days. PFHxSA solutions were prepared using the same lot number of the chemical as was used in Mutlu et al.. Solutions were prepared under an inert atmosphere at a 20,000 µg/mL (20 mg/mL) high-dose solution and a 2 µg/mL ([…]) low-dose solution to mimic the range of concentrations of the dosing formulations used for the in vivo study. Each batch included an MB and an LCS prepared from blank corn oil as QC. The solutions were split into two aliquots each. One aliquot was stored at 4 °C; the other aliquot was stored at room temperature, with both protected from light. The stability samples were analyzed in triplicate on Days 0, 5, 7, and 14 using the same extraction method and LC/MS/MS conditions outlined in SI Texts S2 and S3, respectively. Stability was assessed by using mean peak areas to calculate the percent recovery for each day of analysis relative to Day 0. Information on percent recovery calculation and additional experimental details concerning the stability study may be found in SI Text S2.
Text S1 Solvents and Additives for Analytical Chemistry
Solvents used for sample preparation and mobile phases include methanol (MeOH), water (H2O), and acetonitrile (ACN), which were LC/MS-grade and purchased from Honeywell Burdick & Jackson (Charlotte, NC, USA). Ammonium formate (BioUltra purity) and ammonium acetate (99% pure) were used as mobile phase additives and obtained from Millipore Sigma (St. Louis, MO, USA). Formic acid (FA; 97.5% pure) was also used as an additive; it was purchased from Honeywell Fluka. Detailed information for chemicals used for each analysis may be found in Table S1.
Text S2 Dosing-Solution Determination and Stability Assessment
Dosing solutions were extracted by liquid–liquid extraction using 50 uL aliquots of the dosing solutions and 950 uL of 0.1M formic acid in acetonitrile, vortexing the mixture at 2000 rpm, and centrifuging at 5400 × g for 10 minutes. The supernatants were drawn off and added to Waters Oasis Prime HLB 3cc 60mg (Waters, Milford, MA, USA) solid phase extraction (SPE) cartridges. Supernatants were allowed to elute through the cartridge via gravity. Finally, 100 uL of eluent was diluted using 100 uL of 1% formic acid in water. Extracts were further diluted with the extracted method blank (corn oil) to bring the concentrations to within the calibration range. Sample extracts were analyzed using the same LC/MS/MS method outlined for PFHxSA plasma and liver in Text S4. Samples were quantitated against a matrix-matched calibration curve containing a minimum of 5 points spanning 50-500 ng/mL in extract. […]
verification (CCV) sample and laboratory control sample (LCS) were injected at the start and end of each analytical batch to confirm the validity of the calibration curve and sample quantitation. Acceptance criteria for the CCV and LCS were readback concentrations ± 30% of nominal concentration. The method blank acceptance criterion was a readback concentration of PFHxSA < 0.5x the limit of quantitation (LOQ) of the method. The LOQ was 50 ng/mL in the extract. Samples were injected in sequential order (e.g., r01, r02, r03, …, etc.); no duplicate injections of samples were performed.
Assessment of the stability of PFHxSA in corn oil was conducted using the same extraction method as for dosing solutions. Analysis of PFHxSA in corn oil was conducted using the same LC/MS/MS conditions as PFHxSA dosimetry in plasma and liver (Text S4). The average ratio of PFHxSA peak area to PFOSA internal standard peak area for three replicate injections was divided by the average ratio for Day 0 to derive the percentage of recovery for a given day. No calibration curve was generated for the Stability Assessment. For quality control, the extraction blank needed to have a PFHxSA signal that was ≤ 10% the peak area of PFHxSA on Day 0; the daily LCS was acceptable with a PFHxSA/PFOSA area ratio within 30% of the Day 0 LCS. […]

[2] = test system: cytochrome P450 (CYP450) hepatic metabolism enzyme isoforms 3A2, 4A1, and 2J4; parameters: method as in Mutlu et al. [55]; conditions: ref Mutlu et al. [55], cited from earlier work

SMILES: NS(=O)(=O)C(F)(F)C(F)(F)C(F)(F)C(F)(F)C(F)(F)C(F)(F)F [PFHxSA, Perfluorohexanesulfonamide]
- Stability of corn oil solutions ([1]; 2 µg/mL to 20,000 µg/mL, within ±30% of the initial value, up to 14 days, room and refrigerated (4 °C) temperatures): stable
- MeanD14 (mean of percent recoveries for Day 14 replicates) ([1]; corn oil 2 µg/mL, 4 °C): 79.3%
- Replicate percent recoveries, Day 5 ([1]; corn oil 2 µg/mL, 4 °C): 90.8% and 94.3% and 97.9%
- Replicate percent recoveries, Day 7 ([1]; corn oil 2 µg/mL, 4 °C): 78.3% and 79.5% and 79.3%
- Replicate percent recoveries, Day 14 ([1]; corn oil 2 µg/mL, 4 °C): 77.3% and 77.6% and 83.0%
- MeanD14 (mean of percent recoveries for Day 14 replicates) ([1]; corn oil 2 µg/mL, RT): 97.3%
- Replicate percent recoveries, Day 5 ([1]; corn oil 2 µg/mL, RT): 97.4% and 96.8% and 96.1%
- Replicate percent recoveries, Day 7 ([1]; corn oil 2 µg/mL, RT): 81.3% and 85.5% and 80.6%
- Replicate percent recoveries, Day 14 ([1]; corn oil 2 µg/mL, RT): 97.0% and 93.3% and 102%
- MeanD14 (mean of percent recoveries for Day 14 replicates) ([1]; corn oil 20,000 µg/mL, 4 °C): 128%
- Replicate percent recoveries, Day 5 ([1]; corn oil 20,000 µg/mL, 4 °C): 110% (2×) and 119%
- Replicate percent recoveries, Day 7 ([1]; corn oil 20,000 µg/mL, 4 °C): 119% and 118% and 116%
- Replicate percent recoveries, Day 14 ([1]; corn oil 20,000 µg/mL, 4 °C): 130% and 126% and 128%
- MeanD14 (mean of percent recoveries for Day 14 replicates) ([1]; corn oil 20,000 µg/mL, RT): 88.6%
- Replicate percent recoveries, Day 5 ([1]; corn oil 20,000 µg/mL, RT): 97.3% and 103% and 98.1%
- Replicate percent recoveries, Day 7 ([1]; corn oil 20,000 µg/mL, RT): 90.1% and 94.3% and 88.4%
- Replicate percent recoveries, Day 14 ([1]; corn oil 20,000 µg/mL, RT): 88.0% and 87.2% and 90.5%
- solubility ([1]; corn oil, oil or lipid): 20 mg/mL (≈ 50.1 mM)
- Increase in mRNAs of CYP450 isoforms 3A2, 4A1, and 2J4 ([2]; rat liver): ≥ 2 fold
- Lowest observed transcriptional effect level, CYP450 isoforms 3A2, 4A1, and 2J4 [2]: 30 mg/kg/day
